Assays:
Assay type in all cases: cell-based
MycN protein = target: T1, MycN protein (Homo sapiens, UniProt P04198); test: Degradation of MycN protein, Western blot, SKNBE2 cells (Example 160)
T1 construct: either 2×10^6 of L-363 (human leukemia cell line) or SKNBE2 (neuroblastoma cell line) cells; endogenous in cells; host or cells: SKNBE2 / SK-N-BE(2) neuroblastoma cells
T1 sequence (P04198 1-464): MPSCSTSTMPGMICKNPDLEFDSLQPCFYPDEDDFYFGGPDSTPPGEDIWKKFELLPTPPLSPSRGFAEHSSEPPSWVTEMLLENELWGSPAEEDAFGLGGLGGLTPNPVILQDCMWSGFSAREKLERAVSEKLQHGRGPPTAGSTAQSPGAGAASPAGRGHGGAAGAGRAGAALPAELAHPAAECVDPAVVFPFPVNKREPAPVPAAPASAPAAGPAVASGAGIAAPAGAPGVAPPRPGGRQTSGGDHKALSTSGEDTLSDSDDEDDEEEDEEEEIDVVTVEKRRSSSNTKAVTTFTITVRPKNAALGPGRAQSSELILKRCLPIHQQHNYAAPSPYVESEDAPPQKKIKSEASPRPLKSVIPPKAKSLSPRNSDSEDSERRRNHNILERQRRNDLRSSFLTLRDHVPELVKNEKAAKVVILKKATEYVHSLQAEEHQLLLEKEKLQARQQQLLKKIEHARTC
Method: (§1) In a T150 flask was plated either 2×10^6 of L-363 (human leukemia cell line) or SKNBE2 (neuroblastoma cell line) cells in a total of 30 mL containing Roswell Park Memorial Institute (RPMI) 1640 Medium (Thermo Fisher, Cat. #11875-085), 10% Fetal Bovine Serum (FBS, Thermo Fisher: Cat. #10437-028), 1% Penicillin/streptomycin (Thermo Fisher: Cat. #10378016), and 1% Amophotericin B (Thermo Fisher, Cat. #15290026). The cells were split every 72 hours by reseeding the L-363 or SKNBE2 cells, and the passage number was noted. It is noteworthy that cell cultures that were above 40 passages were not used, and most experiments were done with cells of less than 30 passages.
(§2) In a 6-well cell culture plate, a total of 3 mL of either 1×10^6 cells/mL of L-363 or SKNBE2 cells were seeded, resulting in a total of 3×10^6 cells per well. To each well containing 3 mL of either L-363 or SKNBE2 cell line was added 6 uL of MycN modulating compound (1 mM) and the resulting plate was shaken from left to right, and not swirled. After 6 hours, the cells were placed in a 15 mL falcon tube and spun at 500 Gs at 4° C. in a swinging bucket centrifuge. The medium was then carefully removed without disturbing the pellet. The pellet was then washed with 3 mLs of chilled phosphate buffered saline (PBS) and subjected to the spin cycle. PBS was then removed and the pellet was lysed in 200 uL of radioimmunoprecipitation (RIPA) lysis buffer (Thermo Fisher: Cat. #899000) that is supplemented with protease and phosphatase inhibitors (Thermo Fisher: Cat. #A32959). The cell lysate was then subjected to spinning in a centrifuge for 10 minutes at 13000 G at 4° C. The supernatant was then carefully transferred to a fresh eppendorf tube without disturbing the pellet (˜180 uL). The protein concentration of the cell lysate was then determined by using a bicinchoninic acid (BCA assay) according to manufacturer's protocol (Thermo Fisher: Cat. #23227).
(§3) Cell lysate, approximately 25 ug-30 ug, was loaded per well in a 4-20% polyacrylamide gel (Biorad. Cat. #5671094). After running the dye front off of the gel, the gel was transferred to a nitrocellulose membrane (Biorad: Cat. #1704159) using the transblot turbo system (Biorad: Cat. #1704150) according to manufacturer's protocol. After transferring for 30 minutes, the membrane was blocked with 5% BSA for 1 hour at room temperature. The BSA was then washed off and the primary antibody of choice (1:500) was added, and the membrane was incubated with the primary antibody at 4° C. for overnight. The next morning, the primary antibody was removed and the membrane was washed with 1×-TBST for 10 minutes and repeated three more times. Following the last wash, a secondary antibody (Molecular Devices. Cat. #R8209 or R8208) was added at 1:5000 dilution and incubated for 1 hour at room temperature. Following the incubation with the secondary antibody, the membrane was washed with 1×-TBST for 10 minutes and repeated three more times. Following the last wash, the membrane was washed with de-ionized water twice and dried for at least two hours. Once the membrane is completely dry, the Molecular Devices Spectra Max western system was used to observe the bands. The western image was saved and the band density was measured with ImageJ software.

MycC protein = target: T2, MycC protein (Homo sapiens, UniProt P01106); test: Degradation of MycC protein, Western blot, L-363 cells (Example 160); conditions: for inhibition at 2 µM: 6 h
T2 construct: either 2×10^6 of L-363 (human leukemia cell line) or SKNBE2 (neuroblastoma cell line) cells; endogenous in cells; host or cells: L-363 / L363 human leukemia cells
Method: as §1, §2, §3

MycN protein (n-myc) = target: T3, MycN protein (n-myc) (Homo sapiens, UniProt P04198); test: Degradation of MycN protein, 24 h treatment, JESS Western, SK-N-BE(2) cells (Example 161); conditions: SKNBE2 cells
T3 construct: either 2×10^6 of L-363 (human leukemia cell line) or SKNBE2 (neuroblastoma cell line) cells; endogenous in cells; host or cells: SKNBE2 / SK-N-BE(2) neuroblastoma cells
T3 sequence (P04198 1-464): T1 sequence (P04198 1-464)
Method: (§4) For L363 cells (suspension), 1E6 cells were plated into each well of a 6 well plate. For SK-N-BE(2) cells (adherent), 5E5 cells were plated into each well of a 6 well dish. […] All compounds were diluted to 10 mM in DMSO. Cells were treated with the compound for 24 hrs, then for both cell types, media containing cells were removed from wells into a 15 ml centrifuge tube, and remaining adherent SK-N-BE(2) cells were also scraped from the wells into the appropriate tubes. Tubes were centrifuged, cells were washed with PBS then re-centrifuged to pellet cells. A RIPA buffer cocktail was added to the cells on ice for 5 mins. Cell lysates were clarified by centrifugation and stored at −80 degrees until required. BCA assay was performed on each lysate to determine the protein concentration.
(§5) For validation studies of antibodies, lysates and antibodies were used at a number of concentrations (Lysates: 2, 1, 0.2 mg/ml; Antibodies: 1 in 50, 1 in 200 dilution). Once an appropriate lysate concentration and antibody concentration was determined, samples were screened in the JESS technology (Protein Simple, San Jose, CA—https://www.proteinsimple.com/jess.html).
(§6) Target protein antibodies (n-myc and c-myc) were detected in the chemi-luminescence channel and loading controls (tubulin and GAPDH) were detected using a Near Infra Red (NIR) labeled secondary antibody.
(§7) For SK-N-EB2 adherent cells, 5E5 cells in 1.9 mls media were plated into 6 well dishes and incubated for 24 hrs. […] Cells were scrapped off the plate, centrifuged, washed with PBS, centrifuged, then a RIPA buffer cocktail added to the cells (100 ul), centrifuged and stored at −80 for later analysis. For L363 suspension cells, 1E6 cells were plated into […] (950 ul media) and incubated for 24 hrs. […] Cells were aspirated into tubes, centrifuged, washed with PBS, centrifuged, then a RIPA buffer cocktail added to the cells (100 ul), centrifuged and stored at −80 for later analysis.
(§8) For Western blot, a BCA (total protein) assay was run on all samples, these were then run in batches of 5 compounds plus control (DMSO) on each Western blot run—n-myc and c-myc were run in separate experiments in the chemiluminescence channel. Both tubulin and GAPDH were run as loading controls in all lanes in the near infra red channel.

MycC protein (c-myc) = target: T4, MycC protein (c-myc) (Homo sapiens, UniProt P01106); test: Degradation of MycC protein, 24 h treatment, JESS Western, L363 cells (Example 161); conditions: L-363 cells
T4 construct: either 2×10^6 of L-363 (human leukemia cell line) cells; endogenous in cells; host or cells: L-363 / L363 human leukemia cells
Method: as §4, §5, §6, §7, §8

T4 sequence (P01106 whole entry): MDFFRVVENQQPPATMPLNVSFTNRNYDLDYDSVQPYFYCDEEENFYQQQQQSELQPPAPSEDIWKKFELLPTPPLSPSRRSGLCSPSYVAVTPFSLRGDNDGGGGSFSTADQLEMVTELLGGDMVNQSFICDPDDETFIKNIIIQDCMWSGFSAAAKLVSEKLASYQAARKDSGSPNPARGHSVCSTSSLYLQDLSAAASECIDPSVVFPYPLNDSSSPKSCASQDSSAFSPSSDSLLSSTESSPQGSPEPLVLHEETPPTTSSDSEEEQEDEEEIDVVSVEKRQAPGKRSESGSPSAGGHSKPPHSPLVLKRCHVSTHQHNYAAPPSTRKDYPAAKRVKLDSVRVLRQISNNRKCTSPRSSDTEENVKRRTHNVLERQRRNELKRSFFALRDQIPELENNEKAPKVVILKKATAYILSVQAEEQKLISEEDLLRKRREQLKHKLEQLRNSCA
T2 sequence (P01106 whole entry): as above

Row | Compound | inhibition at 2 µM (MycC protein) | inhibition at 2 µM (MycN protein; SKNBE2, 6 h) | inhibition at 6 µM (MycN protein (n-myc)) | inhibition at 3 µM (MycC protein (c-myc)) | inhibition at 6 µM (MycC protein (c-myc)) | also measured
1 | CN(c1nccc(Nc2cc(C3CC3)[nH]n2)n1)C1CCC(CC(=O)NC2Cc3ccccc3C2)CC1 (centres unmarked) [Compound 121, 2-(4-((4-((5-cyclopropyl-1H-pyrazol-3-yl)amino)pyrimidin-2-yl)(methyl)amino)cyclohexyl)-N-(2,3-dihydro-1H-inden-2-yl)acetamide] | 80 to 100% | – | – | – | – | inhibition at 2 µM (MycN protein; 6 h): 80 to 100%
2 | CN(c1cc(C2CC2)[nH]n1)c1ccnc(N(C)[C@H]2CC[C@H](NC(=O)C3CCc4ccccc43)CC2)n1 (stereo partly drawn) [Compound 109, N-((1R,4R)-4-((4-((5-cyclopropyl-1H-pyrazol-3-yl)(methyl)amino)pyrimidin-2-yl)(methyl)amino)cyclohexyl)-2,3-dihydro-1H-indene-1-carboxamide] | 50 to 79% | < 20% | – | – | – | –
3 | N-((1R,4R)-4-((4-((5-cyclopropyl-1H-pyrazol-3-yl)amino)pyrimidin-2-yl)(methyl)amino)cyclohexyl)-3-methylcyclopent-3-ene-1-sulfonamide [Compound 153] | – | – | – | – | – | % Degradation of MycN (SKNBE2) 6 h, 2 μM (MycN protein): **** (degradation 80-100%); % Degradation of MycC (L-363) 6 h, 2 μM (MycC protein): **** (degradation 80-100%)
4 | CN(c1nccc(Nc2cc(C3CC3)[nH]n2)n1)C1CCN(CC(=O)Nc2cn(C3COC3)cn2)CC1 [Compound 10, 2-(4-((4-((5-cyclopropyl-1H-pyrazol-3-yl)amino)pyrimidin-2-yl)(methyl)amino)piperidin-1-yl)-N-(1-(oxetan-3-yl)-1H-imidazol-4-yl)acetamide] | 80 to 100% | 50 to 79% | – | – | – | –
5 | Cn1nc(Nc2ccnc(N(C)[C@H]3CC[C@H](NC(=O)C4Cc5ccccc5C4)CC3)n2)cc1C1CC1 [Compound 111, N-((1R,4R)-4-((4-((5-cyclopropyl-1-methyl-1H-pyrazol-3-yl)amino)pyrimidin-2-yl)(methyl)amino)cyclohexyl)-2,3-dihydro-1H-indene-2-carboxamide] | < 20% | 20 to 49% | – | – | – | –
6 | CN1CC2(CC(Nc3nccc(Nc4cc(C5CC5)[nH]n4)n3)C2)C1 [Compound 16, N4-(5-Cyclopropyl-1H-pyrazol-3-yl)-N2-(2-methyl-2-azaspiro[3.3]heptan-6-yl)pyrimidine-2,4-diamine] | – | – | 80 to 100% | 80 to 100% | 80 to 100% | inhibition at 0.5 µM (MycN protein (n-myc); 0.5 μM): 20 to 49%; inhibition at 1 µM (MycN protein (n-myc); 1 μM): 20 to 49%; inhibition at 3 µM (MycN protein (n-myc)): 80 to 100%; inhibition at 0.5 µM (MycC protein (c-myc); 0.5 μM): 50 to 79%; inhibition at 1 µM (MycC protein (c-myc)): 80 to 100%
7 | CN(c1nccc(Nc2cc(C3CC3)[nH]n2)n1)C1CC2(C1)CN(Cc1cccc(S(C)(=O)=O)c1)C2 [Compound 28, N4-(5-Cyclopropyl-1H-pyrazol-3-yl)-N2-methyl-N2-(2-(3-(methylsulfonyl)benzyl)-2-azaspiro[3.3]heptan-6-yl)pyrimidine-2,4-diamine] | – | – | 20 to 49% | 80 to 100% | 80 to 100% | –
8 | Cc1nnsc1C(=O)N1CC2(CC(N(C)c3nccc(Nc4cc(C5CC5)[nH]n4)n3)C2)C1 [Compound 33, (6-((4-((5-Cyclopropyl-1H-pyrazol-3-yl)amino)pyrimidin-2-yl)(methyl)amino)-2-azaspiro[3.3]heptan-2-yl)(4-methyl-1,2,3-thiadiazol-5-yl)methanone] | – | – | 80 to 100% | 80 to 100% | 80 to 100% | –
9 | CN(c1nccc(Nc2cc(C3CC3)[nH]n2)n1)C1CCN(Cc2cccc(S(C)(=O)=O)c2)CC1 [Compound 39, N4-(5-Cyclopropyl-1H-pyrazol-3-yl)-N2-methyl-N2-(1-(3-(methylsulfonyl)benzyl)piperidin-4-yl)pyrimidine-2,4-diamine] | – | – | 80 to 100% | 80 to 100% | 80 to 100% | inhibition at 3 µM (MycN protein (n-myc)): 80 to 100%; inhibition at 1 µM (MycC protein (c-myc)): 50 to 79%

Further lines, with some results ahead:

Row | inhibition at 2 µM (MycC protein) | inhibition at 2 µM (MycN protein; SKNBE2, 6 h) | Compound | inhibition at 6 µM (MycN protein (n-myc)) | inhibition at 3 µM (MycC protein (c-myc)) | inhibition at 6 µM (MycC protein (c-myc)) | also measured
10 | < 20% | < 20% | CN(c1cc(C2CCCC2)[nH]n1)c1ccnc(N(C)[C@H]2CC[C@H](NC(=O)C3Cc4ccccc4C3)CC2)n1 [Compound 143, N-((1R,4R)-4-((4-((5-cyclopentyl-1H-pyrazol-3-yl)(methyl)amino)pyrimidin-2-yl)(methyl)amino)cyclohexyl)-2,3-dihydro-1H-indene-2-carboxamide] | – | – | – | –
11 | 80 to 100% | 50 to 79% | CN(c1nccc(Nc2cc(C3CC3)[nH]n2)n1)[C@H]1CC[C@H](NS(=O)(=O)Cc2cccc(S(C)(=O)=O)c2)CC1 [Compound 157, N-((1R,4R)-4-((4-((5-cyclopropyl-1H-pyrazol-3-yl)amino)pyrimidin-2-yl)(methyl)amino)cyclohexyl)-1-(3-(methylsulfonyl)phenyl)methanesulfonamide] | – | – | – | –
12 | 80 to 100% | 80 to 100% | Cn1nnc2ccc(C(=O)N[C@H]3CC[C@H](N(C)c4nccc(Nc5cc(C6CC6)[nH]n5)n4)CC3)cc21 [Compound 151, N-((1R,4R)-4-((4-((5-cyclopropyl-1H-pyrazol-3-yl)amino)pyrimidin-2-yl)(methyl)amino)cyclohexyl)-1-methyl-1H-benzo[d][1,2,3]triazole-6-carboxamide] | – | – | – | –

— patent US20230322722A1, “MODULATORS OF MYC FAMILY PROTO-ONCOGENE PROTEIN” (Nalo Therapeutics, priority 2020, published 2023)
